What was measured:
S. mutans SB = experiment: Preincubation in acidic buffer, growth and viability of S. mutans SB; format: cell-based, Streptococcus mutans; settings: for % Loss of Viability / GFU (colony forming units) / O.D. 675 nm: 500 μg/ml
Description: ^a S. mutans SB at 5 × 10^5 colony forming units per ml was
suspended and preincubated in MES buffer, pH 5.2, at an ionic strength of
0.025 for 1 and 2 hours at 37° C. Preincubation included various
dilution into Todd Hewitt dialysis growth media.
^b Optical densities were measured after 24 hours and 48 hours (value
in parenthesis) incubation at 37° C. for both 1 and 2 hour
^c Colony forming units were determined in duplicate after 24 hours
for both 1 and 2 hour preincubations. They were also determined after 48
hours on those 2 hour preincubation samples showing zero density (values

C. albicans = experiment: HRP added to growing C. albicans cells (FIG. 1); format: cell-based, Candida albicans; settings: data not shown
Description: FIG. 1 is a plot showing the effect of the salivary histidine-rich polypeptide on the growth of C. albicans.
When HRP was not placed in the growth medium initially but was added to growing cells, the following observations were noted (FIG. 1).

Candida Albicans 18804 = experiment: Proliferation of Candida albicans 18804 on denture acrylic strips, poly-L-histidine; format: cell-based
Description: Denture acrylic was uniformly cut into strips of dimension 1/8 inches×1/8 inches×31/2 inches. Each strip was attached to the inside of the cap of the screw cap tube (13 X 100 mm) such that the bottom of each strip lay 3/8 inches from the bottom of each tube. Tubes containing denture strips were sterilized in the ethylene oxide sterilizer. In this experiment, poly-L-histidine was dissolved in 0.025 M MES buffer, pH 5.2 with heating. As in the previous experiment, denture strips were first pretreated with poly-L-histidine (4 mg per ml) overnight prior to incubation with Candida albicans for 21/4 hours. Strips were then transferred to YSM without poly-histidine (controls) or to YSM containing poly-histidine at 2 mg per ml. Although there was precipitation of the poly-L-histidine in the YSM, strips were incubated for 24 hours until controls had reached an optical density at 600 nm=1.2 corresponding to 10^7 colony-forming units per ml. As in experiment with the L-histidine heptapeptide, strips were then transferred to YSM without poly-L-histidine and the growth curve was followed by monitoring the increase in turbidity.

[1] = 1 hour preincubation, after 24 hours
[2] = 2 hours preincubation, after 24 hours
[3] = 2 hours preincubation, after 48 hours (in parenthesis)

Row | Substance | bacteriocidal activity for S. mutans SB (S. mutans SB; 1 or 2 hours preincubation in MES buffer, pH 5.2) | % Loss of Viability (S. mutans SB; [1]) | GFU (colony forming units) (S. mutans SB; [1]) | O.D. 675 nm (S. mutans SB; 1 hour preincubation, after 24 hours incubation) | bacteriocidal effect after 48 hours of incubation (S. mutans SB; 2 hour preincubation in the MES) | % Loss of Viability (S. mutans SB; [2]) | GFU (colony forming units) (S. mutans SB; [2]) | O.D. 675 nm (S. mutans SB; 2 hours preincubation, after 24 hours incubation) | % Loss of Viability (S. mutans SB; [3]) | GFU (colony forming units) (S. mutans SB; [3]) | O.D. 675 nm (S. mutans SB; 2 hours preincubation, after 48 hours incubation (in parenthesis)) | optical densities after 48 hours in the growth media (S. mutans SB; cells previously exposed for 1 hour in the MES buffer) | effectiveness on growth of C. albicans compared to HRP (C. albicans) | effectiveness compared to His-7 (Candida Albicans 18804; compare Table 8 to Table 7) | time for which growth is inhibited (Candida Albicans 18804; denture strips, Table 8) | Optical Density at 600 nm (Candida Albicans 18804; strips 4 mg per ml overnight, then YSM with 2 mg per ml 24 hours, then YSM without poly-L-histidine, 0 hours of incubation)
1 | HEWL: hen egg white lysozyme | bacteriocidal activity | 69.0% | 35.5 × 10^9 | 0.08 | continue to be bacteriocidal | 100% | 0 | 0 | 100% | 0 | 0 | attained optical densities similar to the controls | – | – | – | –
2 | Poly-L-histidine | – | – | – | – | – | – | – | – | – | – | – | – | similarly effective to the HRP | even more effective than His-7 | 80 h | .02
